Experimental data from PubChem BioAssay (NCI).
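These data come from cells grown in 96-well plates and exposed to compound for 48 hours at five concentrations. TGI: concentration producing complete growth inhibition.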

Experiments:
Assay in all cases: NCI-60 cell line screen, 48 h
CAKI-1 renal = test system: CAKI-1 renal
EKVX NSCLC = test system: EKVX NSCLC
HCT-116 colon = test system: HCT-116 colon
HOP-92 NSCLC = test system: HOP-92 NSCLC
HS 578T breast = test system: HS 578T breast
HT29 colon = test system: HT29 colon
IGROV1 ovarian = test system: IGROV1 ovarian
K-562 leukemia = test system: K-562 leukemia
KM12 colon = test system: KM12 colon
MOLT-4 leukemia = test system: MOLT-4 leukemia
NCI-H522 lung = test system: NCI-H522 lung
OVCAR-8 ovarian = test system: OVCAR-8 ovarian
PC-3 prostate = test system: PC-3 prostate
RPMI-8226 leukemia = test system: RPMI-8226 leukemia
SF-268 CNS = test system: SF-268 CNS
SK-MEL-2 melanoma = test system: SK-MEL-2 melanoma
SNB-19 CNS = test system: SNB-19 CNS
T-47D breast = test system: T-47D breast
TK-10 renal = test system: TK-10 renal
OVCAR-3 ovarian = test system: OVCAR-3 ovarian

Structure (SMILES)	TGI (CAKI-1 renal) [µM]	TGI (EKVX NSCLC) [µM]	TGI (HCT-116 colon) [µM]	TGI (HOP-92 NSCLC) [µM]	TGI (HS 578T breast) [µM]	TGI (HT29 colon) [µM]	TGI (IGROV1 ovarian) [µM]	TGI (K-562 leukemia) [µM]	TGI (KM12 colon) [µM]	TGI (MOLT-4 leukemia) [µM]	TGI (NCI-H522 lung) [µM]	TGI (OVCAR-8 ovarian) [µM]	TGI (PC-3 prostate) [µM]	TGI (RPMI-8226 leukemia) [µM]	TGI (SF-268 CNS) [µM]	TGI (SK-MEL-2 melanoma) [µM]	TGI (SNB-19 CNS) [µM]	TGI (T-47D breast) [µM]	TGI (TK-10 renal) [µM]	TGI (OVCAR-3 ovarian) [µM]
CCOC(=O)C1=c2[nH]c3cccc4cccc(c43)n2C(=O)CC1c1ccccc1 (stereo not given)	> 100	> 100	> 100	> 100	> 100	> 100	> 100	> 100	> 100	> 100	> 100	> 100	> 100	> 100	> 100	> 100	> 100	> 100	> 100	–
O=c1c(C2=NCCC2)c(-c2ccc[nH]2)[nH]n1-c1ccccc1	> 100	> 100	> 100	> 100	–	> 100	–	> 100	> 100	> 100	> 100	> 100	> 100	> 100	> 100	> 100	> 100	> 100	> 100	> 100
COc1cc2c(cc1OC)CN1CCCc3cc(OC)c(OC)cc3C1C2 (stereo not given)	> 100	> 100	> 100	> 100	> 100	61.7	> 100	> 100	> 100	> 100	> 100	> 100	> 100	–	> 100	–	> 100	> 100	> 100	> 100
COc1cc(OC)c2c(=O)c(OC)c(-c3ccc4c(c3)OCO4)oc2c1OC	> 100	> 100	> 100	90.9	> 100	> 100	> 100	> 100	> 100	> 100	> 100	> 100	> 100	–	> 100	> 100	> 100	> 100	> 100	> 100
O=C(O)CCNC(=O)c1cc(N(CCBr)CCBr)c([N+](=O)[O-])cc1[N+](=O)[O-]	> 100	> 100	> 100	> 100	> 100	> 100	> 100	> 100	> 100	> 100	> 100	> 100	> 100	> 100	> 100	> 100	> 100	–	> 100	> 100
O=C(CC(C(=O)c1cccs1)c1cccs1)c1ccccc1Cl (stereo not given)	> 100	> 100	> 100	–	> 100	> 100	> 100	> 100	> 100	> 100	–	> 100	> 100	> 100	> 100	> 100	> 100	> 100	> 100	–
